Reference: US12522634B2, “Cyclophilin inhibitors and uses thereof” (Farsight Medical Technology (Shanghai) Co., Ltd., priority 2020, dated 2026)
Read-outs that look alike come from different tables or passages of the source. Starred links: 1 amine or outer side, 2 acyl side, 3 side chain; linkers in the order of their positions; H or OH if unused. Non-standard residues stand in square brackets, D forms with d. Residues, ends and D or L forms follow the SMILES beside them. ξ: configuration not given here. NMeBmt(3-oxo) = C/C=C/C[C@@H](C)C(=O)[C@H](NC)C(=O)O; MeBmt = C/C=C/C[C@@H](C)[C@@H](O)[C@H](NC)C(=O)O; ξThr(3S) = C[C@H](O[*:3])C(N[*:1])C(=O)[*:2]; X1 = CN([C@H](OCCN1CCOCC1)C(=O)[*:2])[*:1]; X2 = CN(C)CCO[C@H](C(=O)[*:2])N(C)[*:1]; NMeL = CN[C@@H](CC(C)C)C(=O)O; NMeV = CN[C@H](C(=O)O)C(C)C; Nva = CCC[C@H](N)C(=O)O

What was measured:
[1] = molecular target: Human CypA (Homo sapiens (Human), UniProt P62937); assay: Cyclophilin peptidyl-prolyl isomerase functional assay (PPIase), CypA; type: biochemical; conditions: human recombinant enzyme, 10° C.; read-out: Inhibition (Ki, nM) Human CypA
[2] = molecular target: Human CypD (Homo sapiens (Human), UniProt P30405); assay: Cyclophilin peptidyl-prolyl isomerase functional assay (PPIase), CypD; type: biochemical; conditions: human recombinant enzyme, 10° C.; read-out: Inhibition (Ki, nM) Human CypD
Human CypD, sequence (P30405 30-207): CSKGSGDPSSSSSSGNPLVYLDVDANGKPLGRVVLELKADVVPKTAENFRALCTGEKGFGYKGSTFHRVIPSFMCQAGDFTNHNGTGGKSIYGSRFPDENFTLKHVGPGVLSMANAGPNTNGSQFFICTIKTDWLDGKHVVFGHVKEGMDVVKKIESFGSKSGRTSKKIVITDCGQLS

[3] = molecular target: recombinant Calcineurin (CaN) (Homo sapiens (Human), UniProt P62937+P63098+Q08209); assay: Calcineurin phosphatase inhibition assay with cyclophilin A; type: biochemical; conditions: RII phosphopeptide substrate, read-out: CaN Inhibition (IC50, nM) + CypA
[4] = molecular target: recombinant Calcineurin (CaN) (Homo sapiens (Human), UniProt P63098+Q08209); assay: Calcineurin phosphatase inhibition assay without cyclophilin A; type: biochemical; conditions: RII phosphopeptide substrate, read-out: CaN Inhibition (IC50, nM) − CypA
[5] = test system: permeabilized HepG2; assay: Calcium retention capacity (CRC) assay in permeabilized HepG2; type: cell-based; conditions: Homo sapiens
[6] = permeabilized HepG2, area under the curve, read-out: Calcium Retention Capacity EC50

Structure (SMILES)	Ki [1]	Ki [2]	IC50 [3]	IC50 [4]	EC50 [5, 6]	EC50 ([5]; HepG2, read-out: Calcium Retention Capacity EC50 (nM))
C/C=C/C[C@@H](C)C(=O)[C@H]1C(=O)N[C@@H](C(C)C)C(=O)N(C)[C@H](OCCN(C)C)C(=O)N(C)[C@@H](CC(C)C)C(=O)N[C@@H](C(C)C)C(=O)N(C)[C@@H](CC(C)C)C(=O)N[C@@H](C)C(=O)N[C@H](C)C(=O)N(C)[C@@H](CC(C)C)C(=O)N(C)[C@@H](CC(C)C)C(=O)N(C)[C@@H](C(C)C)C(=O)N1C [Compound 5] (cyclo(A[dA][NMeL][NMeL][NMeV][NMeBmt(3-oxo)]V[X2][NMeL]V[NMeL]))	23 nM	17 nM	> 10000 nM	> 10000 nM	> 10000 nM	–
C/C=C/C[C@@H](C)[C@@H](O)[C@H]1C(=O)N[C@@H](CC)C(=O)N(C)[C@H](OCCN(C)C)C(=O)N(C)[C@@H](CC(C)C)C(=O)N[C@@H](C(C)C)C(=O)N(C)[C@@H](CC(C)C)C(=O)N[C@@H](C)C(=O)N[C@H](C)C(=O)N(C)[C@@H](CC(C)C)C(=O)N(C)[C@@H](CC(C)C)C(=O)N(C)[C@@H](C(C)C)C(=O)N1C [Compound 1, reference compound]	–	–	–	–	–	916 nM
C/C=C/C[C@@H](C)[C@@H](O)[C@H]1C(=O)NC([C@H](C)O)C(=O)N(C)[C@H](OCCN(C)C)C(=O)N(C)[C@@H](CC(C)C)C(=O)N[C@@H](C(C)C)C(=O)N(C)[C@@H](CC(C)C)C(=O)N[C@@H](C)C(=O)N[C@H](C)C(=O)N(C)[C@@H](CC(C)C)C(=O)N(C)[C@@H](CC(C)C)C(=O)N(C)[C@@H](C(C)C)C(=O)N1C (stereo partly drawn) [Compound 2] (cyclo(A[dA][NMeL][NMeL][NMeV][MeBmt][ξThr(3S)][X2][NMeL]V[NMeL]))	50 nM	78 nM	5000 nM	> 10000 nM	> 10000 nM	–
C/C=C/C[C@@H](C)[C@@H](O)[C@H]1C(=O)N[C@@H](CC)C(=O)N(C)[C@H](OCC2(N(C)C)CC2)C(=O)N(C)[C@@H](CC(C)C)C(=O)N[C@@H](C(C)C)C(=O)N(C)[C@@H](CC(C)C)C(=O)N[C@@H](C)C(=O)N[C@H](C)C(=O)N(C)[C@@H](CC(C)C)C(=O)N(C)[C@@H](CC(C)C)C(=O)N(C)[C@@H](C(C)C)C(=O)N1C [Compound 12]	6.5 nM	6 nM	–	–	–	–
C/C=C/C[C@@H](C)[C@@H](O)[C@H]1C(=O)N[C@@H](C(C)C)C(=O)N(C)[C@H](OCCN2CCOCC2)C(=O)N(C)[C@@H](CC(C)C)C(=O)N[C@@H](C(C)C)C(=O)N(C)[C@@H](CC(C)C)C(=O)N[C@@H](C)C(=O)N[C@H](C)C(=O)N(C)[C@@H](CC(C)C)C(=O)N(C)[C@@H](CC(C)C)C(=O)N(C)[C@@H](C(C)C)C(=O)N1C [Compound 4] (cyclo(A[dA][NMeL][NMeL][NMeV][MeBmt]V[X1][NMeL]V[NMeL]))	–	–	1320 nM	4190 nM	320 nM	–
C/C=C/C[C@@H](C)[C@@H](O)[C@H]1C(=O)N[C@@H](CC)C(=O)N(C)[C@H](OCC/N=C/N(C)C)C(=O)N(C)[C@@H](CC(C)C)C(=O)N[C@@H](C(C)C)C(=O)N(C)[C@@H](CC(C)C)C(=O)N[C@@H](C)C(=O)N[C@H](C)C(=O)N(C)[C@@H](CC(C)C)C(=O)N(C)[C@@H](CC(C)C)C(=O)N(C)[C@@H](C(C)C)C(=O)N1C [Compound 10]	14 nM	9.7 nM	1830 nM	3710 nM	3200 nM	–
C/C=C/C[C@@H](C)[C@@H](O)[C@H]1C(=O)N[C@@H](CC)C(=O)N(C)[C@H](OCC/N=C(\C)N(C)C)C(=O)N(C)[C@@H](CC(C)C)C(=O)N[C@@H](C(C)C)C(=O)N(C)[C@@H](CC(C)C)C(=O)N[C@@H](C)C(=O)N[C@H](C)C(=O)N(C)[C@@H](CC(C)C)C(=O)N(C)[C@@H](CC(C)C)C(=O)N(C)[C@@H](C(C)C)C(=O)N1C [Compound 9]	11 nM	8.2 nM	2020 nM	3880 nM	468 nM	–
C/C=C/C[C@@H](C)C(=O)[C@H]1C(=O)N[C@@H](C(C)C)C(=O)N(C)[C@H](OCCN2CCOCC2)C(=O)N(C)[C@@H](CC(C)C)C(=O)N[C@@H](C(C)C)C(=O)N(C)[C@@H](CC(C)C)C(=O)N[C@@H](C)C(=O)N[C@H](C)C(=O)N(C)[C@@H](CC(C)C)C(=O)N(C)[C@@H](CC(C)C)C(=O)N(C)[C@@H](C(C)C)C(=O)N1C [Compound 6] (cyclo(A[dA][NMeL][NMeL][NMeV][NMeBmt(3-oxo)]V[X1][NMeL]V[NMeL]))	90 nM	150 nM	> 10000 nM	> 10000 nM	> 10000 nM	–

Now from value to compound, other results behind:

Ki [1]	Ki [2]	IC50 [3]	IC50 [4]	EC50 [5, 6]	Structure (SMILES)	EC50 ([5]; HepG2, read-out: Calcium Retention Capacity EC50 (nM))
–	–	1320 nM	5510 nM	946 nM	C/C=C/C[C@@H](C)[C@@H](O)[C@H]1C(=O)N[C@@H](C(C)C)C(=O)N(C)[C@H](OCCN(C)C)C(=O)N(C)[C@@H](CC(C)C)C(=O)N[C@@H](C(C)C)C(=O)N(C)[C@@H](CC(C)C)C(=O)N[C@@H](C)C(=O)N[C@H](C)C(=O)N(C)[C@@H](CC(C)C)C(=O)N(C)[C@@H](CC(C)C)C(=O)N(C)[C@@H](C(C)C)C(=O)N1C [Compound 3] (cyclo(A[dA][NMeL][NMeL][NMeV][MeBmt]V[X2][NMeL]V[NMeL]))	–
–	–	789 nM	3220 nM	2370 nM	C/C=C/C[C@@H](C)[C@@H](O)[C@H]1C(=O)N[C@@H](CCC)C(=O)N(C)[C@H](OCCN(C)C)C(=O)N(C)[C@@H](CC(C)C)C(=O)N[C@@H](C(C)C)C(=O)N(C)[C@@H](CC(C)C)C(=O)N[C@@H](C)C(=O)N[C@H](C)C(=O)N(C)[C@@H](CC(C)C)C(=O)N(C)[C@@H](CC(C)C)C(=O)N(C)[C@@H](C(C)C)C(=O)N1C [Compound 7] (cyclo(A[dA][NMeL][NMeL][NMeV][MeBmt][Nva][X2][NMeL]V[NMeL]))	–
25 nM	6 nM	616 nM	1620 nM	3320 nM	C/C=C/C[C@@H](C)[C@@H](O)[C@H]1C(=O)N[C@@H](CC)C(=O)N(C)[C@H](OCC(C)(C)N(C)C)C(=O)N(C)[C@@H](CC(C)C)C(=O)N[C@@H](C(C)C)C(=O)N(C)[C@@H](CC(C)C)C(=O)N[C@@H](C)C(=O)N[C@H](C)C(=O)N(C)[C@@H](CC(C)C)C(=O)N(C)[C@@H](CC(C)C)C(=O)N(C)[C@@H](C(C)C)C(=O)N1C [Compound 11]	–
–	–	636 nM	7830 nM	1610 nM	C/C=C/C[C@@H](C)[C@@H](O)[C@H]1C(=O)N[C@@H](CCC)C(=O)N(C)[C@H](OCCN2CCOCC2)C(=O)N(C)[C@@H](CC(C)C)C(=O)N[C@@H](C(C)C)C(=O)N(C)[C@@H](CC(C)C)C(=O)N[C@@H](C)C(=O)N[C@H](C)C(=O)N(C)[C@@H](CC(C)C)C(=O)N(C)[C@@H](CC(C)C)C(=O)N(C)[C@@H](C(C)C)C(=O)N1C [Compound 8] (cyclo(A[dA][NMeL][NMeL][NMeV][MeBmt][Nva][X1][NMeL]V[NMeL]))	–
